# Where two headings read alike, the source gives them in different places.
# What was measured:
# K-562 = assay: SRB growth screen, leukemia K-562; settings: Homo sapiens, K562, 48 h; for CC50: read-out: Log10 LC50 (converted); for IC (TGI): read-out: Log10 TGI
# CCRF-CEM = assay: SRB growth screen, leukemia CCRF-CEM; settings: Homo sapiens
# HT29 = assay: SRB growth screen, colon cancer HT29; settings: Homo sapiens, HT-29, 48 h; for GI50: read-out: Log10 GI50 (converted); for CC50: read-out: Log10 LC50 (converted)
# KM12 = assay: SRB growth screen, colon cancer KM12; settings: Homo sapiens, KM12, 48 h
# SF-539 = assay: SRB growth screen, CNS cancer SF-539; settings: Homo sapiens, SF-539, 48 h; for CC50: read-out: Log10 LC50 (converted)
# LOX-IMVI = assay: SRB growth screen, melanoma LOX-IMVI; settings: Homo sapiens, 48 h; for CC50: read-out: Log10 LC50 (converted); for IC (TGI): read-out: Log10 TGI
# UACC-257 = assay: SRB growth screen, melanoma UACC-257; settings: Homo sapiens, UACC-257, 48 h; for CC50: read-out: Log10 LC50 (converted); for IC (TGI): read-out: Log10 TGI
# A498 = assay: SRB growth screen, renal cancer A498; settings: Homo sapiens, A498, 48 h; for CC50: read-out: Log10 LC50 (converted)
# TK-10 = assay: SRB growth screen, renal cancer TK-10; settings: Homo sapiens, TK-10, 48 h; for CC50: read-out: Log10 LC50 (converted); for IC (TGI): read-out: Log10 TGI
# UO-31 = assay: SRB growth screen, renal cancer UO-31; settings: Homo sapiens, UO-31, 48 h; for CC50: read-out: Log10 LC50 (converted); for IC (TGI): read-out: Log10 TGI
# HCT-15 = assay: SRB growth screen, colon cancer HCT-15; settings: Homo sapiens, HCT-15, 48 h; for GI50: read-out: Log10 GI50 (converted); for CC50: read-out: Log10 LC50 (converted); for IC (TGI): read-out: Log10 TGI
# T-47D = assay: SRB growth screen, breast cancer T-47D; settings: Homo sapiens, T47D, 48 h; for GI50: read-out: Log10 GI50 (converted); for CC50: read-out: Log10 LC50 (converted)
# HCT-116 = assay: SRB growth screen, colon cancer HCT-116; settings: Homo sapiens, HCT-116, 48 h; for GI50: read-out: Log10 GI50 (converted); for CC50: read-out: Log10 LC50 (converted)
# BT-549 = assay: SRB growth screen, breast cancer BT-549; settings: Homo sapiens, BT-549, 48 h; for GI50: read-out: Log10 GI50 (converted); for CC50: read-out: Log10 LC50 (converted); for IC (TGI): read-out: Log10 TGI
# COLO 205 = assay: SRB growth screen, colon cancer COLO 205; settings: Homo sapiens, COLO 205, 48 h; for CC50: read-out: Log10 LC50 (converted)
# HCC-2998 = assay: SRB growth screen, colon cancer HCC-2998; settings: Homo sapiens, HCC 2998, 48 h; for CC50: read-out: Log10 LC50 (converted); for IC (TGI): read-out: Log10 TGI
# IGROV1 = assay: SRB growth screen, ovarian cancer IGROV1; settings: Homo sapiens, IGROV-1, 48 h; for CC50: read-out: Log10 LC50 (converted)
# OVCAR-3 = assay: SRB growth screen, ovarian cancer OVCAR-3; settings: Homo sapiens, OVCAR-3, 48 h; for CC50: read-out: Log10 LC50 (converted); for IC (TGI): read-out: Log10 TGI
# OVCAR-4 = assay: SRB growth screen, ovarian cancer OVCAR-4; settings: Homo sapiens, OVCAR-4, 48 h; for GI50: read-out: Log10 GI50 (converted); for CC50: read-out: Log10 LC50 (converted); for IC (TGI): read-out: Log10 TGI
# DU-145 = assay: SRB growth screen, prostate cancer DU-145; settings: Homo sapiens, DU-145, 48 h; for CC50: read-out: Log10 LC50 (converted); for IC (TGI): read-out: Log10 TGI
# MDA-MB-231/ATCC = assay: SRB growth screen, breast cancer MDA-MB-231/ATCC; settings: Homo sapiens, MDA-MB-231, 48 h; for CC50: read-out: Log10 LC50 (converted)
# HOP-62 = settings: Homo sapiens, HOP-62, 48 h; for CC50: read-out: Log10 LC50 (converted)
# NCI-H460 = settings: Homo sapiens, NCI-H460, 48 h; for CC50: read-out: Log10 LC50 (converted)
# NCI-H522 = settings: Homo sapiens, NCI-H522, 48 h; for GI50: read-out: Log10 GI50 (converted); for IC (TGI): read-out: Log10 TGI
# [1] = read-out: Log10 GI50 (converted)
# [2] = 48 h, read-out: Log10 LC50 (converted)
# [3] = read-out: concentration considered cytostasis (percentage growth 0)
# [4] = read-out: concentration necessary to achieve primary growth inhibition (PG +50)
# [5] = read-out: cytotoxicity concentration (percentage growth -50)
# [6] = read-out: Log10 LC50 (converted)
structure (smiles),measurement,setting,value
"CC(=O)O[C@H]1C(=O)[C@@]2(C)[C@H]([C@H](OC(=O)c3ccccc3)[C@]3(O)C[C@H](OC(=O)[C@H](O)[C@@H](NC(=O)C4(C)OC4C)c4ccccc4)C(C)=C1C3(C)C)[C@]1(OC(C)=O)CO[C@@H]1C[C@@H]2O (stereo partly shown) [Ceph-epoxide, cephalomannine epoxide]",GI50,K-562; [1],< 10 nM
same,CC50,K-562,> 100 µM
same,IC (TGI),K-562,> 100 µM
same,GI50,"CCRF-CEM; 48 h, read-out: Log10 GI50 (converted)",< 10 nM
same,CC50,CCRF-CEM; [2],> 100 µM
same,IC (TGI),"CCRF-CEM; 48 h, read-out: Log10 TGI",2.51 µM
same,IC (TGI),CCRF-CEM; [3],2.51 µM
same,IC50,CCRF-CEM; [4],< 10 nM
same,CC50,CCRF-CEM; [5],> 100 µM
same,GI50,HT29,< 10 nM
same,CC50,HT29,> 100 µM
same,IC (TGI),HT29; read-out: Log10 TGI,0.115 µM
same,GI50,KM12; [1],< 10 nM
same,GI50,SF-539; [1],< 10 nM
same,CC50,SF-539,40.7 nM
same,IC (TGI),SF-539; read-out: Log10 TGI,< 0.01 µM
same,GI50,LOX-IMVI; [1],< 10 nM
same,CC50,LOX-IMVI,> 100 µM
same,IC (TGI),LOX-IMVI,21.4 µM
same,GI50,UACC-257; [1],20.9 nM
same,CC50,UACC-257,> 100 µM
same,IC (TGI),UACC-257,> 100 µM
same,GI50,A498; [1],316 nM
same,CC50,A498,> 100 µM
same,IC (TGI),A498; read-out: Log10 TGI,> 100 µM
same,GI50,TK-10; [1],64.6 nM
same,CC50,TK-10,> 100 µM
same,IC (TGI),TK-10,> 100 µM
same,GI50,UO-31; [1],2000 nM
same,CC50,UO-31,> 100 µM
same,IC (TGI),UO-31,> 100 µM
same,GI50,HCT-15,603 nM
same,CC50,HCT-15,> 100 µM
same,IC (TGI),HCT-15,> 100 µM
same,GI50,T-47D,15.5 µM
same,CC50,T-47D,> 100 µM
same,IC (TGI),T-47D; read-out: Log10 TGI,> 100 µM
same,GI50,HCT-116,< 10 nM
same,CC50,HCT-116,> 100 µM
same,GI50,BT-549,10 nM
same,CC50,BT-549,< 100 µM
same,IC (TGI),BT-549,0.0977 µM
same,GI50,COLO 205; [1],< 10 nM
same,CC50,COLO 205,603 nM
same,IC (TGI),COLO 205; read-out: Log10 TGI,0.0269 µM
same,GI50,HCC-2998; [1],< 10 nM
same,CC50,HCC-2998,> 100 µM
same,IC (TGI),HCC-2998,0.0457 µM
same,GI50,IGROV1; [1],< 10 nM
same,CC50,IGROV1,> 100 µM
same,GI50,OVCAR-3; [1],< 10 nM
same,CC50,OVCAR-3,> 100 µM
same,IC (TGI),OVCAR-3,0.0182 µM
same,GI50,OVCAR-4,3.89 µM
same,CC50,OVCAR-4,> 100 µM
same,IC (TGI),OVCAR-4,> 100 µM
same,GI50,DU-145; [1],26.3 nM
same,CC50,DU-145,> 100 µM
same,IC (TGI),DU-145,0.145 µM
same,GI50,MDA-MB-231/ATCC; [1],18.2 nM
same,CC50,MDA-MB-231/ATCC,> 100 µM
same,GI50,HOP-62; [1],24.5 nM
same,CC50,HOP-62,> 100 µM
same,GI50,NCI-H460; [1],< 10 nM
same,CC50,NCI-H460,> 100 µM
same,IC (TGI),NCI-H460; read-out: Log10 TGI,> 100 µM
same,GI50,NCI-H522,< 10 nM
same,IC (TGI),NCI-H522,33.1 nM
"CC(=O)O[C@H]1C(=O)[C@@]2(C)[C@H]([C@H](OC(=O)c3ccccc3)[C@]3(O)C[C@H](OC(=O)[C@H](O)[C@@H](NC(=O)c4ccccc4)c4ccccc4)C(C)=C1C3(C)C)[C@]1(OC(C)=O)CO[C@@H]1C[C@@H]2O [Paclitaxel, paclitaxel, reference compound]",CC50,K-562,> 100 µM
same,IC (TGI),K-562,> 100 µM
same,CC50,CCRF-CEM; [2],> 100 µM
same,IC (TGI),"CCRF-CEM; 48 h, read-out: Log10 TGI",> 100 µM
same,IC50,CCRF-CEM; read-out: concentration at which primary growth inhibition occurs (PG +50),0.00245 nM
same,IC (TGI),CCRF-CEM; [3],> 100 µM
same,IC50,CCRF-CEM; [4],< 10 nM
same,CC50,CCRF-CEM; [5],> 100 µM
same,GI50,HT29,< 0.0001 nM
same,CC50,HT29,40.7 µM
same,CC50,KM12; [6],> 100 µM
same,IC (TGI),KM12; read-out: Log10 TGI,43.7 µM
same,CC50,SF-539,> 100000 nM
same,CC50,LOX-IMVI,> 70.8 µM
same,IC (TGI),LOX-IMVI,22.4 µM
same,CC50,UACC-257,93.3 µM
same,IC (TGI),UACC-257,30.2 µM
same,CC50,A498,74.1 µM
same,CC50,TK-10,> 100 µM
same,IC (TGI),TK-10,> 100 µM
same,CC50,UO-31,> 100 µM
same,IC (TGI),UO-31,51.3 µM
same,GI50,HCT-15,427 nM
same,CC50,HCT-15,> 100 µM
same,IC (TGI),HCT-15,> 100 µM
same,GI50,T-47D,0.000155 µM
same,CC50,T-47D,> 100 µM
same,GI50,HCT-116,< 0.0001 nM
same,CC50,HCT-116,> 100 µM
same,IC (TGI),HCT-116; read-out: Log10 TGI,15.1 µM
same,GI50,BT-549,0.49 nM
same,CC50,BT-549,> 100 µM
same,IC (TGI),BT-549,0.479 µM
same,CC50,COLO 205,> 38900 nM
same,CC50,HCC-2998,55 µM
same,IC (TGI),HCC-2998,17 µM
same,CC50,IGROV1,> 100 µM
same,IC (TGI),IGROV1; read-out: Log10 TGI,64.6 µM
same,CC50,OVCAR-3,> 100 µM
same,IC (TGI),OVCAR-3,28.2 µM
same,GI50,OVCAR-4,10 µM
same,CC50,OVCAR-4,> 100 µM
same,IC (TGI),OVCAR-4,64.6 µM
same,CC50,DU-145,> 100 µM
same,IC (TGI),DU-145,> 100 µM
same,CC50,MDA-MB-231/ATCC,51.3 µM
same,IC (TGI),MDA-MB-231/ATCC; read-out: Log10 TGI,14.5 µM
same,CC50,HOP-62,79.4 µM
same,IC (TGI),HOP-62; read-out: Log10 TGI,15.8 µM
same,CC50,NCI-H460,> 100 µM
same,GI50,NCI-H522,< 0.0001 nM
same,CC50,NCI-H522; [6],> 100 µM
same,IC (TGI),NCI-H522,0.00631 nM
